Measurements as given in patent US9340790B2, “Method for constructing recombinant bacterium for producing non-native protein, and utilization of same” (RIKEN, priority 2010, dated 2016).
Values joined by “and” are separate entries in the source; they are usually repeats but may differ in a detail not shown here. Equal entries are not always repeated.

Experiments:
Format in all cases: cell-based, Escherichia coli
BW25113 (prfA+ strain) = assay: Efficiency of non-natural amino acid introduction at UAG codon in prfA+ strain (western blotting, TRX-GST fusion); details: prfA+ condition, compared with 3-iodotyrosine
From the text: In this experiment, a GST gene containing a UAG codon near the N terminal was introduced, together with an expression unit for introducing a non-natural amino acid, into BW25113 which was a prfA^+ strain. Then, the efficiency of translation was checked. The GST gene containing a UAG codon near the N terminal is incorporated in a plasmid so that a fusion protein of the GST and thioredoxin (TRX) is produced (refer to (a) of FIG. 31). The result is shown in (b) of FIG. 31. […] The strain shown in Lane 1 contains no construct that introduces a non-natural amino acid. As is clear from Lanes 4 to 6, strains into each of which a construct for assigning a UAG codon to 3-iodotyrosine, 4-azidophenylalanine or o-sulfotyrosine has been introduced generate total-length fusion proteins in the presence of corresponding non-natural amino acids (see arrow A in (b) of FIG. 31). Further, in these strains, proteins resulting from termination of translation at the UAG codon were also produced (see arrow B in (b) of FIG. 31). The number in parentheses below each lane indicates the percentage (%) of total-length fusion protein with respect to the sum of the proteins resulting from termination of translation and the full-length fusion protein thus produced. That is, the number indicates the efficiency of non-natural amino acid introduction at the UAG codon. […]

RFzero-q strain = assay: Chloramphenicol (Cm) resistance of cat transformants
From the text: In order to confirm that the RFzero-q strain allows insertion of a glutamic acid at an amber codon, the RFzero-q strain was transformed with a mutated gene which codes for chloramphenicol acetyltransferase (cat), in which mutated gene there are three amber codons in ORF (such a mutated gene is referred to as cat(3Am)). […] The “X”s in the amino acid sequence shown in (a) of FIG. 5 indicate the positions of amber codons of the cat(3Am), and are glutamic acids in the case of the RFzero-q strain (SEQ ID NO: 17).
(§1) Furthermore, a RFzero-q strain was transformed with a mutated gene which codes for cat, and in which mutated gene there are ten amber codons in ORF (such a mutated gene is referred to as cat(10Am)). […] The “X”s in the amino acid sequence shown in (b) of FIG. 5 indicate positions of amber codons of the cat(10Am), and are glutamic acids in the case of the RFzero-q strain (SEQ ID NO: 18).
(§2) In order to examine if the UAG translation efficiency was improved, a cat(13Am) in which all 13 of the glutamine codons on the cat gene were replaced with UAG was introduced into the RFzero-q3 and RFzero-q7 strains, respectively. […] This was lower than Cm resistance (400 μg/ml) in the HST08 and RFzero-q strains transformed with pACYC184 carrying the wild-type cat gene.

HST08 = assay: as above
From the text: as §1, §2

RFzero-q3 strain = assay: Chloramphenicol (Cm) resistance of cat(13Am) transformant; details: RFzero-q3 strain with cat(13Am); listed as Cm
Description: as §2

RFzero-q7 strain = assay: as above; details: RFzero-q7 strain with cat(13Am)
Description: as §2

BW25113RFzero-iy strain = details: LB liquid culture medium with the non-natural amino acid added, shaking at 37° C. overnight
Description: First, a minute amount of glycerol stock of a BW25113RFzero-iy strain was added to (i) an LB liquid culture medium and (ii) an LB liquid culture medium to which 3-iodotyrosine (IY), 3-bromotyrosine (BrY) or 3-chlorotyrosine (CIY) had been added, and incubated with shaking at 37° C. overnight. In this way, the growth of the BW25113RFzero-iy strain was examined.

[1] = tested on: RFzero-iy strains (BW25113RFzero-iy, HMS174RFzero-iy, BL21RFzero-iy); assay: Dependence of growth on 3-iodotyrosine, spotting on non-selective LB culture medium; details: non-selective LB culture medium with or without 3-iodotyrosine
Description: Furthermore, how much the growth of each of the RFzero-iy strains depends on non-natural amino acids was checked. A cell culture having been incubated overnight was diluted, the diluted culture was spotted on (i) a non-selective LB culture medium containing 3-iodotyrosine and (ii) a non-selective LB culture medium containing no 3-iodotyrosine. The media were further incubated. […] This is consistent with the fact that UAG translation activity is necessary in a cell to avoid lethality caused by prfA knockout.

[N-]=[N+]=Nc1ccc(C[C@H](N)C(=O)O)cc1 [AzF, 4-azidophenylalanine]
Efficiency of non-natural amino acid introduction at the UAG codon (BW25113 (prfA+ strain)): lower efficiency than 3-iodotyrosine

O=C(N[C@H](CO)[C@H](O)c1ccc([N+](=O)[O-])cc1)C(Cl)Cl [chloramphenicol]
Cm resistance (chloramphenicol concentration in culture medium up to which resistance was shown) (RFzero-q strain; RFzero-q strain transformed with cat(3Am)): 400 µg/mL
Cm resistance (chloramphenicol concentration in culture medium up to which resistance was shown) (RFzero-q strain; RFzero-q strain transformed with cat(10Am)): 200 µg/mL
Cm resistance (RFzero-q strain; RFzero-q strain transformed with pACYC184 carrying the wild-type cat gene): 400 µg/mL
Cm resistance (chloramphenicol concentration in culture medium up to which resistance was shown) (RFzero-q strain; RFzero-q strain transformed with wild-type cat): 400 µg/mL
Cm concentration at which the strain did not grow (HST08; HST08 into which cat(10Am) had been introduced): < 10 µg/mL
Cm resistance (HST08; HST08 transformed with pACYC184 carrying the wild-type cat gene): 400 µg/mL
Cm resistance (RFzero-q3 strain): 200 µg/mL and ~400 µg/mL
Cm resistance (RFzero-q7 strain): 200 µg/mL

N[C@@H](Cc1ccc(O)c(Br)c1)C(=O)O [BrY, 3-bromotyrosine]
OD600 (BW25113RFzero-iy strain): 1.39

N[C@@H](Cc1ccc(O)c(Cl)c1)C(=O)O [ClY, 3-chlorotyrosine]
OD600 (BW25113RFzero-iy strain): 1.41

N[C@@H](Cc1ccc(O)c(I)c1)C(=O)O [IY, 3-iodotyrosine]
OD600 (BW25113RFzero-iy strain): 1.36
Dependence of growth on the non-natural amino acid [1]: totally depended on the presence of 3-iodotyrosine
